Experimental data taken from patent US20150056272A1, “Synergistic Antimicrobial Preparations Containing Chlorite and Hydrogen Peroxide” (S.K. Pharmaceuticals, Inc., priority 1998, published 2015).

Tested on: candida albicans
Experiment: Candida albicans challenge (log reduction)
Format: cell-based
Conditions: components applied separately at the same concentrations (400 ppm chlorite; 100 ppm hydrogen peroxide)

Compound	effect on candida albicans activity
OO [hydrogen peroxide]	ineffective
chlorite	ineffective
